Source: ChEMBL document CHEMBL1250451, “Mechanistic insights into a Ca2+-dependent family of alpha-mannosidases in a human gut symbiont” (Nat Chem Biol, 2010)
The source made the active and inactive calls. The calls are words filed in the database; no cut-off is given here.

Key:
Assay type in all cases: protein assay
[1] = target: T1, Alpha-1,2-mannosidase, putative (BT_3130) (Bacteroides thetaiotaomicron) (UniProt Q8A325); test: Activity of Bacteroides thetaiotaomicron GH92 alpha-mannosidase GH92 alpha-mannosidase 3130 assessed as mannose release at 1 mM after 16 hrs by HPLC relative to untreated control after 16 hrs by HPLC
T1 sequence (whole entry): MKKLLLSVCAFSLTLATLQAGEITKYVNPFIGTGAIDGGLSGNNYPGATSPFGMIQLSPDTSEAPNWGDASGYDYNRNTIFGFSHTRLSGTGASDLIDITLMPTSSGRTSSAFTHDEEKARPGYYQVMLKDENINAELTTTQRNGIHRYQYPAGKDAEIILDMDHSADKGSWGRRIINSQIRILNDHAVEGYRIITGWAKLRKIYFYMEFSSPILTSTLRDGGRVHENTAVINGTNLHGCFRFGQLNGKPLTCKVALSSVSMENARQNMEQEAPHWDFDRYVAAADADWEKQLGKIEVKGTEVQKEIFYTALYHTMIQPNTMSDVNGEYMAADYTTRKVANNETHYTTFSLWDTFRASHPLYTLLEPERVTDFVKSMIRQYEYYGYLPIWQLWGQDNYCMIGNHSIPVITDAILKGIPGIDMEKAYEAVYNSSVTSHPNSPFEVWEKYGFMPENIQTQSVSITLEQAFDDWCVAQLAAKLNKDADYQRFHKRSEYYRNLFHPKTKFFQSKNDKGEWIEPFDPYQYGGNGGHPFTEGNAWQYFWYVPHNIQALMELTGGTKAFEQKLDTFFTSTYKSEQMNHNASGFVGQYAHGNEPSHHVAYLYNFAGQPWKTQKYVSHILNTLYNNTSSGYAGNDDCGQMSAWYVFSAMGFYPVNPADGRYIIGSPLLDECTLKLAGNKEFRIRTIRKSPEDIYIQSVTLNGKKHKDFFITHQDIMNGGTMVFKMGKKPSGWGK

[2] = target: T2, Alpha-1,2-mannosidase (BT_3784) (Bacteroides thetaiotaomicron) (UniProt Q8A182); test: Activity of Bacteroides thetaiotaomicron GH92 alpha-mannosidase GH92 alpha-mannosidase 3784 assessed as mannose release at 1 mM after 16 hrs by HPLC relative to untreated control after 16 hrs by HPLC
T2 sequence (whole entry): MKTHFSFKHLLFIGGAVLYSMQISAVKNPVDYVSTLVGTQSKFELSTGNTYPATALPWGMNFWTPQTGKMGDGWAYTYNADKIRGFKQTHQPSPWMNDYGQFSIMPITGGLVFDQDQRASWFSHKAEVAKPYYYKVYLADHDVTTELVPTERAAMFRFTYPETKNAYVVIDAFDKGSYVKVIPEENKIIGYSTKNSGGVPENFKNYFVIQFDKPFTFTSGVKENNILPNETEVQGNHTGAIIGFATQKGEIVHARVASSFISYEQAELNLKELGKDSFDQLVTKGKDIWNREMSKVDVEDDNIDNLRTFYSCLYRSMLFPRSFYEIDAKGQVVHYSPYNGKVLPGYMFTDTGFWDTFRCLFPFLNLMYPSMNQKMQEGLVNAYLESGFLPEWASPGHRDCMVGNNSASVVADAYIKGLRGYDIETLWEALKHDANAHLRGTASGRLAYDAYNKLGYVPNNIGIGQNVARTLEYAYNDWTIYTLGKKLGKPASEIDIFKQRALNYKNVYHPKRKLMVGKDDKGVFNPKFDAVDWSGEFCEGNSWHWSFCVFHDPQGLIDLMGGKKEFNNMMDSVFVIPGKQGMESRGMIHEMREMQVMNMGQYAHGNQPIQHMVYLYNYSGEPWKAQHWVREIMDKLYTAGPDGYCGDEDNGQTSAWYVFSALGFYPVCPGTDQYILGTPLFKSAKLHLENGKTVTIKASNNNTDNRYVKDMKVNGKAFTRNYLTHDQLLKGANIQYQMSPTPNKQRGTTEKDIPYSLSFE

[3] = target: T3, Glycoside hydrolase family 92 (BT_3963) (Bacteroides thetaiotaomicron) (UniProt Q8A0Q8); test: Activity of Bacteroides thetaiotaomicron GH92 alpha-mannosidase GH92 alpha-mannosidase 3963 assessed as mannose release at 1 mM after 16 hrs by HPLC relative to untreated control after 16 hrs by HPLC
T3 sequence (whole entry): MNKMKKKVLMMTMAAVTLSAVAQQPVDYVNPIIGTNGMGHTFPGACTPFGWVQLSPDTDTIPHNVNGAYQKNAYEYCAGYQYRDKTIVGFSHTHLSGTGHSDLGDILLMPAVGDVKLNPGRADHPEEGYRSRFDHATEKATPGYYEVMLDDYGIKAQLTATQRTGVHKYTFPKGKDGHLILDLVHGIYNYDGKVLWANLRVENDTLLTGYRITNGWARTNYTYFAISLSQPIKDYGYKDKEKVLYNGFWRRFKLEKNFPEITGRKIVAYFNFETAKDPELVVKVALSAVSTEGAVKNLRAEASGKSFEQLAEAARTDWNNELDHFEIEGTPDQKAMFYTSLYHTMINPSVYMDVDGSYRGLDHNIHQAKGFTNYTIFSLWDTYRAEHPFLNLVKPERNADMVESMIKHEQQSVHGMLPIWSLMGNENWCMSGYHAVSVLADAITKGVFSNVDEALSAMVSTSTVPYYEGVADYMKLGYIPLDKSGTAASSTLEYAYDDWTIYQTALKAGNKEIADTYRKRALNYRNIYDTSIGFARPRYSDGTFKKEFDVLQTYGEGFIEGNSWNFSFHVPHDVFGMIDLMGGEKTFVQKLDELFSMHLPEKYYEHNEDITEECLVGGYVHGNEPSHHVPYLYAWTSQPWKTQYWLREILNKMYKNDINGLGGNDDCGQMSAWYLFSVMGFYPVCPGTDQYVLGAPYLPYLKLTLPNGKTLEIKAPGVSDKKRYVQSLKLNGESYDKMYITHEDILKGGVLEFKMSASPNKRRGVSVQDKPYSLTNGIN

OC[C@H]1O[C@H](O[C@H]2[C@@H](O)[C@H](O)[C@@H](CO)O[C@@H]2O)[C@@H](O)[C@@H](O)[C@@H]1O
Activity [1]: 4.3% | Activity [2]: 100% | Activity [3]: inactive

OC[C@H]1O[C@H](OC[C@H]2O[C@H](O)[C@@H](O)[C@@H](O)[C@@H]2O)[C@@H](O)[C@@H](O)[C@@H]1O
Activity [1]: 21% | Activity [2]: inactive | Activity [3]: inactive

OC[C@H]1O[C@H](O[C@@H]2[C@H](O)[C@@H](O)O[C@H](CO)[C@H]2O)[C@@H](O)[C@@H](O)[C@@H]1O
Activity [2]: 5.6% | Activity [3]: inactive

OC[C@H]1O[C@H](O[C@H]2[C@H](O)[C@H](O)[C@@H](O)O[C@@H]2CO)[C@@H](O)[C@@H](O)[C@@H]1O
Activity [1]: 23% | Activity [2]: 7.8% | Activity [3]: inactive
